According to EPA's ToxRefDB 2:

What was measured:
[1] = test system: rat; settings: Prenatal developmental toxicity study; sprague dawley; Oral; Gavage/Intubation; dose end: 17 GD; group: maternal; systemic / in life observation / body weight / body weight gain
[2] = test system: mouse; settings: Subchronic oral toxicity in rodents, b6c3f1, Gavage/Intubation, dose end: 13 week, group: systemic, systemic / in life observation / mortality / mortality
[3] = test system: rat; settings: Carcinogenicity; fischer; Oral; Gavage/Intubation; dose end: 103 week; group: systemic; systemic / pathology microscopic / stomach / hyperkeratosis + systemic / pathology microscopic / stomach / hyperplasia + systemic / …
[4] = test system: mouse; settings: Carcinogenicity; b6c3f1; Oral; Gavage/Intubation; dose end: 103 week; group: systemic; systemic / pathology microscopic / stomach / hyperkeratosis + systemic / pathology microscopic / stomach / hyperplasia + systemic / …
[5] = test system: rat; settings: Subchronic oral toxicity in rodents, wistar, Feed, dose end: 14 week, group: systemic
[6] = test system: rat; settings: Multigenerational reproductive toxicity study, wistar, Oral, Feed, dose end: 2 generation
[7] = test system: dog; settings: Chronic toxicity; beagle; Oral; Feed; dose end: 52 week; group: systemic; systemic / clinical chemistry / aminopyrine-n-demethylase / aminopyrine-n-demethylase + systemic / in life observation / body weight / body …
[8] = test system: mouse; settings: Carcinogenicity; b6c3f1; Oral; Feed; dose end: 104 week; group: systemic; systemic / in life observation / body weight / body weight + systemic / in life observation / body weight / body weight gain + systemic / in…
[9] = test system: rabbit; settings: Prenatal developmental toxicity study, himalayan, Oral, Gavage/Intubation, dose end: 28 GD
[10] = test system: rat; settings: Chronic toxicity; sprague dawley; Oral; Feed; dose end: 104 week; group: systemic; systemic / pathology microscopic / mammary gland / mixed tumor nos + systemic / in life observation / body weight / body weight gain + …
[11] = test system: rabbit; settings: Prenatal developmental toxicity study, new zealand white, Oral, Gavage/Intubation, dose end: 20 GD
[12] = systemic / organ weight / spleen / absolute + systemic / organ weight / spleen / relative to body weight + systemic / clinical chemistry / …
[13] = group: offspring, systemic / in life observation / body weight / offspring (pup) weight + systemic / pathology gross / liver / irregular surface + systemic / …
[14] = group: developmental, developmental / developmental malformation / bone / incomplete ossification + systemic / in life observation / body weight / fetal weight
[15] = group: developmental, developmental / developmental malformation / bone / incomplete ossification + systemic / in life observation / body weight / fetal weight + …
[16] = group: maternal, systemic / in life observation / clinical signs / alopecia + systemic / in life observation / clinical signs / cold ears + systemic / in …
[17] = group: developmental, systemic / in life observation / body weight / fetal weight
[18] = group: maternal, reproductive / reproductive performance / aborted / aborted + systemic / in life observation / body weight / body weight gain

`CCCCc1ncc(/C=C(\Cc2cccs2)C(=O)O)n1Cc1ccc(C(=O)O)cc1` [Eprosartan] showed an LEL [1] of 1000 mg/kg/day, an LOAEL [1] of 1000 mg/kg/day and an NEL [1] of 100 mg/kg/day. It also gave an NOAEL [1] of 100 mg/kg/day.
`C=CC(=O)OCC` [Ethyl acrylate] was tested, and the LEL [2] was 25 mg/kg/day, the LOAEL [2] was > 25 mg/kg/day and the NEL [2] was 12 mg/kg/day. For the same compound, the NOAEL [2] was ≥ 25 mg/kg/day, the LEL [3] was 100 mg/kg/day and the LOAEL [3] was 100 mg/kg/day. For the same compound, the NEL [3] was < 100 mg/kg/day, the NOAEL [3] was < 100 mg/kg/day and the LEL [4] was 100 mg/kg/day. For the same compound, the LOAEL [4] was 100 mg/kg/day, the NEL [4] was < 100 mg/kg/day and the NOAEL [4] was < 100 mg/kg/day.
In the case of `COc1nn(C(=O)[N-]S(=O)(=O)c2ccccc2OC(F)(F)F)c(=O)n1C.[Na+]` [Flucarbazone-sodium], the LEL ([5]; systemic / organ weight / spleen / absolute + systemic / organ weight / spleen / relative to body weight) is reported as 73.5 mg/kg/day, the NEL [5, 12] is reported as 17.6 mg/kg/day and the NOAEL [5, 12] is reported as 73.5 mg/kg/day. It also gave an LOAEL ([5]; systemic / organ weight / spleen / absolute + systemic / organ weight / spleen / relative to body weight + systemic / pathology microscopic…) of 287 mg/kg/day, an LEL [6, 13] of 1060 mg/kg/day and an LOAEL [6, 13] of 1060 mg/kg/day. The NEL [6, 13] was 346 mg/kg/day, the NOAEL [6, 13] was 346 mg/kg/day and the LOAEL ([6]; group: parental, systemic / organ weight / uterus / absolute) was 991 mg/kg/day. The NOAEL ([6]; group: parental, systemic / organ weight / uterus / absolute + systemic / in life observation / body weight / body weight + systemic / in life observation / …) was 340 mg/kg/day, the LEL ([6]; group: parental, systemic / pathology gross / intestine large / dilatation) was 453 mg/kg/day and the NEL ([6]; group: parental, systemic / pathology gross / intestine large / dilatation + systemic / in life observation / clinical signs / defecation + systemic / in …) was 5.5 mg/kg/day. It also gave an LEL [7] of 183 mg/kg/day, an LOAEL [7] of 183 mg/kg/day and an NEL [7] of 35.9 mg/kg/day. For the same compound, the NOAEL [7] was 35.9 mg/kg/day, the LEL [8] was 2070 mg/kg/day and the LOAEL [8] was 2070 mg/kg/day. For the same compound, the NEL [8] was 275 mg/kg/day, the NOAEL [8] was 275 mg/kg/day and the LEL [9, 14] was 500 mg/kg/day. It also gave an LOAEL [9, 14] of 500 mg/kg/day, an NEL [9, 15] of 300 mg/kg/day and an NOAEL [9, 15] of 300 mg/kg/day. The LEL [9, 16] was 300 mg/kg/day, the LOAEL [9, 16] was 300 mg/kg/day and the NEL [9, 16] was 100 mg/kg/day. For the same compound, the NOAEL [9, 16] was 100 mg/kg/day.
In the case of `C#C[C@]1(OC(C)=O)CC[C@H]2[C@@H]3CCC4=CC(=O)CC[C@@H]4[C@H]3CC[C@@]21C` [Norethindrone acetate], the LEL [10] is reported as 0.289 mg/kg/day, the LOAEL [10] is reported as > 3.3 mg/kg/day and the NEL [10] is reported as < 0.289 mg/kg/day. For the same compound, the NOAEL [10] was ≥ 3.3 mg/kg/day.
In the case of `O=S(=O)(O)C(F)(F)C(F)(F)C(F)(F)C(F)(F)C(F)(F)C(F)(F)C(F)(F)C(F)(F)F` [PFOS], the LEL [11, 17] is reported as 3.75 mg/kg/day, the LOAEL [11, 17] is reported as > 3.75 mg/kg/day and the NEL [11, 17] is reported as 1 mg/kg/day. The NOAEL [11, 17] was ≥ 3.75 mg/kg/day, the LOAEL [11, 18] was > 2.5 mg/kg/day and the NEL [11, 18] was 0.1 mg/kg/day. The NOAEL [11, 18] was ≥ 2.5 mg/kg/day and the LEL ([11]; group: maternal, systemic / in life observation / body weight / body weight gain) was 1 mg/kg/day.
